Experimental data reported in PMC5823845 (Bioorganic & Medicinal Chemistry, 2018).

What was measured:
[1] = Intrinsic clearance in liver microsomes; type: in vitro ADME; settings: liver microsomes, 37 °C, NADPH, 45 min, mean of 5
Description: The reaction is terminated by the addition of methanol. Following centrifugation, the supernatant is analyzed on the LC-MS/MS. […] The data is the mean on 5 separate experiments.
The ln peak area ratio (compound peak area/internal standard peak area) is plotted against time and the gradient of the line determined.
(see Supplementary data file for details).

PK studies in rats = type: in vivo, Sprague-Dawley rats
Description: The Test Items were orally administered at a dose of 10 mg/kg and a dosing volume of 10 mL/kg. […] The Test Items were intravenously administered at a dose of 0.5 mg/kg and a dosing volume of 2 mL/kg. […] Whole blood concentrations of the Test Items were measured using LC-MS/MS and selected pharmacokinetic parameters calculated using Pharsight WinNonLin software. For furthers details see Supplementary data file.

[2] = test system: panel of 120 other receptors, channels and enzymes; assay: CEREP selectivity screen, binding and enzyme assays; settings: 10 μM
Description: (§1) The CEREP selectivity screen was performed on the following targets:
(§2) A1, A2A, A3, α1, α2, β1, β2, AT1, AT2, BZD central, BZD periph, BB, B2, CGRP, CB1, CCK1, CCK2, D1, D2S, D3, D4.4, D5, ETA, ETB, GABA, GAL1, GAL2, PDGF, CXCR2, CCR1, TNF- α, H1, H2, MC4, MT1, M1, M2, M3, M4, M5, NK1, NK2, NK3,Y1, Y2, NTS1(NT1), δ2, κ, µ, NOP(ORL1) , PAC1(PACAP), PPARγ, PCP, EP2, EP4, IP(PGI2,), P2X, P2Y,5-HT1A, 5-HT1B, 5-HT2A, 5-HT2B, 5-HT2C, 5-HT3, 5-HT5A, 5-HT6, 5-HT7, σ, sst, GR, ER, VPAC1(VIP1), V1a, Ca^2+ channel (L), KV channel, KV channel, SKCa channel, Na^+ channel, Cl^- channel, norepinephrine transporter. dopamine transporter, 5-HT transporter.
sPLA2, COX1, COX2, 5-lipoxygenase, 12-lipoxygenase, inducible NOS, PDE2A1, PDE3A, PDE4D2, PDE5, PDE6, ACE, ACE-2, BACE-2, ECE-1, elastase, caspase-3, caspase-8, cathepsin D, cathepsin L, neutral endopeptidase, MMP-1, MMP-3, MMP-9, tryptase, TACE, phosphatase 1B, phosphatase CDC25A, Scr kinase, acetylcholinesterase, MAO-A, MAO-B, CENP-E, Eg5, HDAC3, HDAC4, HMG-CoA reductase, HDAC11, surtuin-1, surtuin-2.

5HT2B site = target: T1, 5HT2B site (Homo sapiens, UniProt P41595); assay: CEREP selectivity screen, binding assay; settings: read-out: highest inhibition, 5HT2B site
T1 construct: Cerep (CRO)
T1 sequence (P41595 whole entry): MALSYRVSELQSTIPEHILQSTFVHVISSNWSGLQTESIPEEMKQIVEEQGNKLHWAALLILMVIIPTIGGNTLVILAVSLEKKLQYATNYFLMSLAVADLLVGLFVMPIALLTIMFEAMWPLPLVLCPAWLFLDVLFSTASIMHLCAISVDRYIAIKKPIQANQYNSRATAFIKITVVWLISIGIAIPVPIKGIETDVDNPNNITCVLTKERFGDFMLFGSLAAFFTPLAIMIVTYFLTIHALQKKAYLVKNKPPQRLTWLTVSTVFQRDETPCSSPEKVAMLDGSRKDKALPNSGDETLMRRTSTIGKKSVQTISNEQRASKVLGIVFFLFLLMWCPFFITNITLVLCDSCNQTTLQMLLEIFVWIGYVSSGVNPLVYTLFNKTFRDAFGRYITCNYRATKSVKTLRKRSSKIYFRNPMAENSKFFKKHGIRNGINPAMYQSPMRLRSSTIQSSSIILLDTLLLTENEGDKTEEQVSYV
Description: as §1, §2

HEPG2 cells = assay: High-content cell toxicity screen in HEPG2 cells; type: cell-based; settings: concentrations up to 50 μM
Description: Effect on the cell or mitochondrial viability markers in HepG2 cells were tested for compounds up to 50 μM. HepG2 cells were plated on 96-well tissue culture treated black walled clear bottomed polystyrene plates at 0:3 _ 104 cells in 100_L per well. After 24 hr the cells were dosed with the test compound at a range of concentrations (see Assay Summary for details). At the end of the incubation period, the cells were loaded with the relevant dye/antibody for each cell health marker. The plates were then scanned using an automated fluorescent cellular imager, ArrayScanr VTI (Thermo Scientific Cellomics).

[3] = test system: Salmonella Typhimurium (TA98, TA100, and TA1535); assay: Bacterial cytotoxicity; type: cell-based; settings: up to 100 μM; presence and absence of S9
Text: The results for cytotoxicity are expressed as percent of control growth (OD650). A compound with growth less than 60% of control is flagged and considered to be cytotoxic.

[4] = test system: Salmonella Typhimurium (TA98, TA100, and TA1535); assay: Ames test; type: cell-based; settings: three bacterial strains; presence and absence of S9
Text: For the first two assays, photometry is used for detection.

mouse RAR alpha receptor = target: T2, mouse RAR alpha receptor (Mus musculus, UniProt P11416); settings: relative to the amplitude of the normalizing ATRA output
T2 sequence (P11416 183-417 limits assumed): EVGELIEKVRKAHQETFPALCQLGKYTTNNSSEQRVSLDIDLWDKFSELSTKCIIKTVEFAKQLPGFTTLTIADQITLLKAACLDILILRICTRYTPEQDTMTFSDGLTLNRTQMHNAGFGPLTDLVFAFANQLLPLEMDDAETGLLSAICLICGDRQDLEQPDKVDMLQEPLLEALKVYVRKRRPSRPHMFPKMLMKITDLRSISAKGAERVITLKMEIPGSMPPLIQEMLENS

[5] = Beagle dogs, n = 3
Description: intravenous (bolus) injection at a dose level of 0.2 mg/kg. […] Intravenous doses were administered by bolus injection into a cephalic vein at a dose volume of 1 mL/kg. Oral doses were administered by gastric intubation at a dose volume of 5 mL/kg. […] Pharmacokinetic parameters were calculated using the computer program Phoenix WinNonlin version 6.3 (Pharsight Corporation, USA).

[6] = Stability and intrinsic clearance in cryopreserved hepatocytes; settings: dog
Description: (§3) Reactions were terminated by addition of 100 μL of acetonitrile containing carbamazepine as the analytical internal standard. Samples were centrifuged and the supernatant fractions analysed by LC-MS/MS. The instrument responses (peak heights) were referenced to the zero time-point samples (as 100%) in order to determine the percentage of compound remaining. Ln plots of the % remaining, for each compound, were used to determine the half-life for the hepatocyte incubations.

[7] = as above; settings: cynomolgus monkey
Description: as §3

CCOc1c(Cl)cc(C(=O)Nc2ccc(C(=O)O)c(C)c2)cc1OC(C)C [Compound 56, 4-(3-Chloro-4-ethoxy-5-isopropoxybenzamido)-2-methylbenzoic acid]
microsomal CLint ([1]; human microsomes): 5.3 µL/min/mg
microsomal CLint ([1]; mouse microsomes): 37.6 µL/min/mg
rat pK AUC po (PK studies in rats; 10 mg/kg po, 8% Ethanol/92% PEG-400, n = 4): 70,765 ng·min mL^−1
rat pK Cl (PK studies in rats; iv 0.5 mg/kg, n = 4): 7 mL/kg/min
bioavailability (PK studies in rats; male, Sprague-Dawley, whole blood, rat, 10 mg/kg po vs 0.5 mg/kg iv, n = 4, read-out: rat pK F%): 40%
interactions with panel of 120 receptors, channels and enzymes [2]: no significant interactions
inhibition (or stimulation), all panel targets ([2]; two independent experiments): ≤ 25%
inhibition at 10 µM (5HT2B site): 25%
effect on cell or mitochondrial viability markers (HEPG2 cells): no effect
bacterial cytotoxicity tests [3]: negative
Ames test [4]: negative
RARα agonist type (partial / full agonist) (mouse RAR alpha receptor): full agonist
po F ([5]; 0.5 mg/kg iv, 1 mg/kg po): 83%
iv t1/2 ([5]; 0.5 mg/kg iv): 9.2 h
po Cmax ([5]; 1 mg/kg po): 2050 ng/mL
po Tmax ([5]; 1 mg/kg po): 0.5 h
half-life at 1 μM [6]: > 7.5 h
half-life at 30 μM [6]: > 7.5 h
hepatocyte CLint at 1 μM [6]: < 3 µL/min/1e6 cells
hepatocyte CLint at 30 μM [6]: < 3 µL/min/1e6 cells
half-life at 1 μM [7]: > 7.5 h
half-life at 30 μM [7]: > 7.5 h
hepatocyte CLint at 1 μM [7]: < 3 µL/min/1e6 cells
hepatocyte CLint at 30 μM [7]: < 3 µL/min/1e6 cells
